Measurements: patent US8173606B2, “Sulfated oligosaccharide derivatives” (Progen Pharmaceuticals Limited, priority 2004, dated 2012)

Legend:
FGF-1 = FGF-1 (Homo sapiens, UniProt P05230); assay: SPR based solution affinity assay, growth factor binding (FGF-1); conditions: heparin-coated sensorchip, HBS-EP buffer, 25° C.; read-out: Kd aFGF
Protocol: (§1) Binding affinities of ligands for the growth factors FGF-1, FGF-2 and VEGF were measured using a surface plasmon resonance (SPR) based solution affinity assay. The principle of the assay is that heparin immobilised on a sensorchip surface distinguishes between free and bound growth factor in an equilibrated solution of the growth factor and a ligand. Upon injection of the solution, the free growth factor binds to the immobilised heparin, is detected as an increase in the SPR response and its concentration thus determined. A decrease in the free growth factor concentration as a function of the ligand concentration allows for the calculation of the dissociation constant, Kd. It is important to note that ligand binding to the growth factors can only be detected when the interaction involves the HS binding site, thus eliminating the chance of evaluating non-specific binding to other sites on the protein. A 1:1 stoichiometry has been assumed for all protein:ligand interactions.
(§2) For the testing of growth factor binding activity, heparin-coated sensorchips were used. Their preparation, via immobilisation of biotinylated BSA-heparin on a streptavidin-coated sensorchip, has been described.[5] Heparin has also been immobilised via aldehyde coupling using either adipic acid dihydrazide or 1,4-diaminobutane. […] Ligands binding to FGF-1 and VEGF were measured in HBS-EP buffer (10 mM HEPES, pH 7.4, 150 mM NaCl, 3.0 mM EDTA and 0.005% (v/v) polysorbate 20), while binding to FGF-2 was measured in HBS-EP buffer containing 0.3 M NaCl.[5] […] For each assay mixture, 50-200 μL of solution was injected at 5-40 μL/min and the relative binding response measured. […]
(§3) Sensorgram data were analysed using the BIAevaluation software (BIAcore). […]
(§4) [formula] and the binding equation[5] can be expressed as
(§5) The Kd values given are the values fit, using the binding equation, to a plot of [P] versus [L]total. Where Kd values were measured in duplicate, the values represent the average of the duplicate measurements. […]

FGF-2 = FGF-2 (Homo sapiens, UniProt P09038); assay: SPR based solution affinity assay, growth factor binding (FGF-2); conditions: heparin-coated sensorchip, HBS-EP buffer containing 0.3 M NaCl, 25° C.; read-out: Kd bFGF
Protocol: as §1, §2, §3, §4, §5

[1] = tested on: herpes simplex virus (HSV-1) KOS321 strain; assay: Antiviral assay, HSV-1 infectivity (plaque forming units); format: cell-based; conditions: African green monkey kidney cells; virus pre-incubated with compound 10 min
From the text: (§6) In panel A, the results are expressed as a percentage of the number of viral plaque forming units (PFU) formed in cells infected with the compound-treated virions relative to mock-treated controls. In panel B, the results are expressed as a percentage of the average area of 20 viral plaques formed in the continuous presence of compound relative to mock-treated control cells. Monolayer cultures of African green monkey kidney cells[35] and herpes simplex virus (HSV-1) KOS321 strain[36] were used throughout. The antiviral assays on the compounds were performed as described by Nyberg et al.[13] Briefly, the effects of the compounds on the infection of cells by exogenously added virus were tested by mixing serial fivefold dilutions of compound (at 0.032-20 μM) with approximately 200 plaque forming units of the virus. Following incubation of the virus and compound for 10 min at room temperature, the mixture was added to the cells and left on the cell monolayer for 2 h at 37° C. Subsequently, the inoculum was aspirated and replaced with an overlay medium of 1% methylcellulose solution in Eagle's minimum essential medium (EMEM). The viral plaques that developed after incubation of cells for 3 days at 37° C. were stained with 1% crystal violet solution and counted. The effects of the compounds on cell-to-cell spread of HSV-1 were tested by adding serial fivefold dilutions of compound (at 0.032-20 μM) in the serum-free overlay medium to cells after their infection with HSV-1. After incubation of the compound with the cells for 3 days at 37° C., the images of 20 plaques were captured and subjected to area determination using IM500 software (Leica).

[2] = tested on: herpes simplex virus (HSV-1) KOS321 strain; assay: Antiviral assay, HSV-1 cell-to-cell spread (plaque area); format: cell-based; conditions: African green monkey kidney cells; compound in overlay medium after infection, 3 days
From the text: as §6

Chain of FGF-1 (P05230 whole entry, species assumed): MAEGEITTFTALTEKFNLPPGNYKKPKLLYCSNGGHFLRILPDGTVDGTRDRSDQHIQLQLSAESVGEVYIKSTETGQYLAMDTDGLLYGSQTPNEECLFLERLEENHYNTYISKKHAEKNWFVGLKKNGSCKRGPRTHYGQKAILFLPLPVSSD
Chain of FGF-2 (P09038 143-288, species assumed): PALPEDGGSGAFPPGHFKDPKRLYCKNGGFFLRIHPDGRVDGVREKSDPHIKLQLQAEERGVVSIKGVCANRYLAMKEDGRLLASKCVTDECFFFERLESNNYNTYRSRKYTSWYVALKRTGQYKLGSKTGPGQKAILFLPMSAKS

Substance	Kd (FGF-1) [nM]	Kd (FGF-2) [nM]	IC50 [1] [nM]	IC50 [2] [nM]
Benzyl Glycoside Polysulfate [PG500]	0.12 ± 0.025	86 ± 7	2000	1000
Octyl Glycoside Polysulfate [PG501]	0.144 ± 0.008	68.3 ± 2.9	1000	400
